Test [1] has as its target T1, recombinant GTase A119 (Arabidopsis thaliana, UniProt Q9LVR1).
T1 construct: made in house; host or cells: E. coli
T1 sequence (Q9LVR1 1-481): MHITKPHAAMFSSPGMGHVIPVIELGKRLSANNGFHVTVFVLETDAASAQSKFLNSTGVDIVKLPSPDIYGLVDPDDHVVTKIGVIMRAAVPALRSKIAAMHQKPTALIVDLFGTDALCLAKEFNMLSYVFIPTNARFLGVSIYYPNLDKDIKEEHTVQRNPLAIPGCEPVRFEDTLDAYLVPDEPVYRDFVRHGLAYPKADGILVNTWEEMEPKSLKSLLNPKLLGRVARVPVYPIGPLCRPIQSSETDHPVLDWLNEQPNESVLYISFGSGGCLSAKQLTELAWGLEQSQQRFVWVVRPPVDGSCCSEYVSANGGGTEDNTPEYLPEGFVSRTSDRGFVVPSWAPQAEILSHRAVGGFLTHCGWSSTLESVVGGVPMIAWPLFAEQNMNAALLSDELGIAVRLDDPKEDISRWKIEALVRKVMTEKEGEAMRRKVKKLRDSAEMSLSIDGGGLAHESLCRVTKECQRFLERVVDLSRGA
As to the kind of experiment: Specific activity of recombinant GTase producing O-glucosides against lignin precursors (HPLC). It is filed as biochemical. The conditions noted are these: 30° C.; ND = not detected.

Test [2] deals with T1, recombinant GTase A119. The test can be described thus: Kinetic studies (Michaelis-Menten) on recombinant GTase producing O-glucosides. It is filed as biochemical. The settings on record: O-glucoside formation.
In the next test the target is T2, recombinant GTase A320 (Arabidopsis thaliana, UniProt Q9LVF0).
T2 construct: made in house; host or cells: E. coli
T2 sequence (Q9LVF0 1-496): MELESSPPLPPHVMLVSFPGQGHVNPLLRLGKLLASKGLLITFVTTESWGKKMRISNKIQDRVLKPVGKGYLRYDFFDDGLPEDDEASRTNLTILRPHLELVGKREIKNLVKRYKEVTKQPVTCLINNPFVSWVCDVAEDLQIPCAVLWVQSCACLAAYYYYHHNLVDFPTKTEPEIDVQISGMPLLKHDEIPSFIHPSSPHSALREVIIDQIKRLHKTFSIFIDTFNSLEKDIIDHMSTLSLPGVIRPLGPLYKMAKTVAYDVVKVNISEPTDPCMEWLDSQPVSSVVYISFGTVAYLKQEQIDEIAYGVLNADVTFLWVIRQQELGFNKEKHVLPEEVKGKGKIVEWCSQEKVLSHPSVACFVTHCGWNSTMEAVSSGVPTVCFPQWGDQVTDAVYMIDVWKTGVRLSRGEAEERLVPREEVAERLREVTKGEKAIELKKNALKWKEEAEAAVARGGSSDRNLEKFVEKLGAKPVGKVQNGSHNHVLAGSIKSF
As to the kind of experiment: Specific activity of recombinant GTase producing glucose ester against lignin precursors (HPLC). The conditions noted are these: 5 mM UDPG, 0.2 μg GTase, 200 μl, 20° C., 30 min. The test is classed as biochemical.

Test [3] concerns the target T3, recombinant GTase A911 (Arabidopsis thaliana, UniProt O22182).
T3 sequence (O22182 1-456): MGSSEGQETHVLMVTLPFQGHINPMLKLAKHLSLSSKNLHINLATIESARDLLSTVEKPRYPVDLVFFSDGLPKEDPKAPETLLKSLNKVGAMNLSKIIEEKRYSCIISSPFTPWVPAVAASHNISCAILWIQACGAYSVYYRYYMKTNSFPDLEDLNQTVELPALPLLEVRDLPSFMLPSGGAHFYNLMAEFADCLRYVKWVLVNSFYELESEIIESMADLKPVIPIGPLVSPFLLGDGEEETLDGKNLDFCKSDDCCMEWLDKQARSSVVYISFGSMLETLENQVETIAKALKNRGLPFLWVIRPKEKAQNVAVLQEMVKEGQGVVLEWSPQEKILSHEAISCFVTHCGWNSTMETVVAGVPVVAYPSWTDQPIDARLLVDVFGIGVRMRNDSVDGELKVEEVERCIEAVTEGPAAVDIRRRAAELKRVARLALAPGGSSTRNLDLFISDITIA
Described as above. The test is classed as biochemical. Also noted: made in house; host or cells: E. coli. The conditions noted are these: 0.5 ml of potential substrates, 5 mM UDPG, 0.2 μg GTase, 200 μl, 20° C., 30 min.

In another test the target is T4, recombinant GTase A41 (Arabidopsis thaliana, UniProt Q5XF20).
T4 construct: made in house; host or cells: E. coli
T4 sequence (Q5XF20 7-490): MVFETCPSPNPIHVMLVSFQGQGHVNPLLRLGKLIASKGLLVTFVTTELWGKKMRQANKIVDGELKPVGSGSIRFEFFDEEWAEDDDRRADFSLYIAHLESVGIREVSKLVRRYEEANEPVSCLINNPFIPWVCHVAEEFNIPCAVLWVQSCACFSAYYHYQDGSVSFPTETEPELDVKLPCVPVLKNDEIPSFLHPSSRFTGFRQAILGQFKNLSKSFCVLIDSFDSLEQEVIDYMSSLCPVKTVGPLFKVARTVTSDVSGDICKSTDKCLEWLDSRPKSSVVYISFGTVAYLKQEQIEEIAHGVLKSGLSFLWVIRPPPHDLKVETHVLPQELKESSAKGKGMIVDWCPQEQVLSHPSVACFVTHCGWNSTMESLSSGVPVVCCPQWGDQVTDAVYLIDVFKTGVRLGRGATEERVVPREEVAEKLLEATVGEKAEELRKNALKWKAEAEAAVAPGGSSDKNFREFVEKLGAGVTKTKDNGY
As to the kind of experiment: Kinetic studies (Michaelis-Menten) on recombinant GTase producing glucose esters. The conditions noted are these: glucose ester formation. The test is classed as biochemical.

For another test, the target named is T5, recombinant GTase A233 (Arabidopsis thaliana, UniProt Q8W491).
T5 construct: made in house; host or cells: E. coli
As to the kind of experiment: Specific activity of recombinant GTase producing O-glucosides against lignin precursors (HPLC). It is filed as biochemical. The settings on record: 30° C.; ND = not detected.

In the next test the target is T6, recombinant GTase A42 (Arabidopsis thaliana, UniProt O23401).
T6 construct: made in house; host or cells: E. coli
T6 sequence (O23401 1-479): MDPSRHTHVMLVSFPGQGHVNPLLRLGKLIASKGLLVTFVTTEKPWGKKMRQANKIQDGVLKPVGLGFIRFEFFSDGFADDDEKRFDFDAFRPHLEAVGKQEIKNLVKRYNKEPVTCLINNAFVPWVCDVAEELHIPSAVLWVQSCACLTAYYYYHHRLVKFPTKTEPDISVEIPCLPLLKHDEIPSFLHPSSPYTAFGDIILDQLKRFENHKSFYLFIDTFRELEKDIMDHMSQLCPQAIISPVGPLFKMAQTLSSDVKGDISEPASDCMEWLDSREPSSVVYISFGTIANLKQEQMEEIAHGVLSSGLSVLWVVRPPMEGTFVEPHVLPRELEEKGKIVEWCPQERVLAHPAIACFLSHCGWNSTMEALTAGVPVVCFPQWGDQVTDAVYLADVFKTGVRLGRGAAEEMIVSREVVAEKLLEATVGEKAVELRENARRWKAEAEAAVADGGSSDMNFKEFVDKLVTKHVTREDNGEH
The test can be described thus: Kinetic studies (Michaelis-Menten) on recombinant GTase producing glucose esters. The test is classed as biochemical. The conditions noted are these: glucose ester formation.

Test [4] addresses T3, recombinant GTase A911. Described as above. The settings on record: glucose ester formation.

Turning to `COc1cc(/C=C/C(=O)O)ccc1O` [Ferulic acid, ferulic acid], the “Specific activity of A119 (substrate converted to 4-O-glucoside)” value at recombinant GTase A119 [1] was found to be 14.48 nkat/mg. For the same compound, on recombinant GTase A119 [2], the “Vmax (A119)” value is 18.87 nkat/mg. The “Specific activity of A320 (substrate converted to glucose ester)” value at recombinant GTase A320 was found to be 0.54 nkat/mg. In addition, the “Specific activity of A911 (substrate converted to glucose ester)” value at recombinant GTase A911 [3] stood at 2.88 nkat/mg. In addition, the “Vmax (A41)” value at recombinant GTase A41 was 11.35 nkat/mg. Also, the “Specific activity of A233 (substrate converted to 4-O-glucoside)” value at recombinant GTase A233 was found to be 0.37 nkat/mg. Further, the “Vmax (A42)” value at recombinant GTase A42 came to 18.35 nkat/mg. For the same compound, on recombinant GTase A911 [4], the “Vmax (A911)” value is on record as 6.91 nkat/mg.
Turning to `O=C(O)/C=C/c1ccc(O)cc1` [p-coumaric acid], the “Specific activity of A119 (substrate converted to 4-O-glucoside)” value at recombinant GTase A119 [1] stood at 0.02 nkat/mg. In addition, the “Specific activity of A320 (substrate converted to glucose ester)” value at recombinant GTase A320 came out at 0.05 nkat/mg. Besides, the “Specific activity of A911 (substrate converted to glucose ester)” value on recombinant GTase A911 [3] stood at 4.31 nkat/mg. Further, on recombinant GTase A233, the “Specific activity of A233 (substrate converted to 4-O-glucoside)” value is 0.09 nkat/mg.

The values above are taken from patent US7335814B2, “Transgenic cells expressing glucosyltransferase nucleic acids” (The University of York, priority 2000, dated 2008).
